Values quoted from earlier work in patent US20230233646A1, “METHOD OF TREATMENT OF CONGENITAL MYASTHENIC SYNDROME USING DOK7 GENE OR POLYPEPTIDE” (priority 2020, published 2023).

System: peripheral cholinesterase enzyme

CN(C)C(=O)Oc1ccc[n+](C)c1 [Pyridostigmine]
fraction of peripheral cholinesterase enzyme carbamylated: about 30%
